Reference: article PMC6277198, “Molecular basis for activation of lecithin:cholesterol acyltransferase by a compound that increases HDL cholesterol” (eLife, 2018)
Entries after “also recorded” stand apart in the source; their conditions may differ.

Columns and labels:
[1] = tested on: LPLA2 chimeric variants (S33Y, I53G, and S33Y/I53G); experiment: Differential scanning fluorimetry; assay type: binding
LPLA2 = target: T1, LPLA2 (Homo sapiens, UniProt Q8NCC3); experiment: Differential scanning fluorimetry; assay type: binding
T1 sequence (Q8NCC3 34-412): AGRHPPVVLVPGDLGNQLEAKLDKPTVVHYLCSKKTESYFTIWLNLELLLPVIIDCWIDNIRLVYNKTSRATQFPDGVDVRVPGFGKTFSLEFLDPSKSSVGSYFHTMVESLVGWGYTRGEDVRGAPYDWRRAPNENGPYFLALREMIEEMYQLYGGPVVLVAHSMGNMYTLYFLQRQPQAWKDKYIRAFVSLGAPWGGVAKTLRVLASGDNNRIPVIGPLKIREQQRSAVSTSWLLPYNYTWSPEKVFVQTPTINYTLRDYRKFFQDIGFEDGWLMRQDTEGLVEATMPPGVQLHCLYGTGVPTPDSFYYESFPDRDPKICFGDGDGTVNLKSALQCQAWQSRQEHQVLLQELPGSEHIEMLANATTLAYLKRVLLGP

LCAT [2] = target: T2, LCAT (Homo sapiens, UniProt P04180); experiment: Soluble esterase assay (pNPB); assay type: biochemical; settings: WT LCAT
T2 construct: hydrolysis of 4-methylumbelliferyl palmitate (MUP) by full-length LCAT; made in house; host or cells: HEK293F (transient transfection, secreted)
T2 sequence (P04180 25-440): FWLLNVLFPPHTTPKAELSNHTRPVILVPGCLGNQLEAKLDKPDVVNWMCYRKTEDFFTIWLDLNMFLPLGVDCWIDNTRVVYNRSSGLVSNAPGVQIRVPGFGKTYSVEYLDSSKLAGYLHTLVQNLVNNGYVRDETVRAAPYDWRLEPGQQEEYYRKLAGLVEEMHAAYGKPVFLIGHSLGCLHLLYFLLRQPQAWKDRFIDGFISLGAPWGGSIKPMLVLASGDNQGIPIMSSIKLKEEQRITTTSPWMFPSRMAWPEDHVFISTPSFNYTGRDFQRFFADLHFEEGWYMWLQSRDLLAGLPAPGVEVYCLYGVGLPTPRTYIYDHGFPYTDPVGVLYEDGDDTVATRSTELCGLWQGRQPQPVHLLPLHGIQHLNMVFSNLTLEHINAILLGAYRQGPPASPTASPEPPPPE
Protocol: (§1) The esterase assay was performed as previously described ([Glukhova et al., 2015]) at least in triplicate. pNPB was diluted to 10 mM into reaction buffer containing 10% dimethylsulfoxide. The reaction was started by addition of 40 μL 1 μM LCAT containing either 3.2% DMSO or 11.1 μM compound 1 to 10 μL of pNPB. The increase in absorbance at 400 nm was monitored on a Spectramax plate reader for 15 min. Significance was determined using a one-way analysis of variance followed by Tukey’s multiple comparisons post-test in GraphPad Prism.

LCAT [3] = experiment: Soluble esterase assay (pNPB); assay type: biochemical, human; settings: any variant of LCAT
Protocol: as §1

WT LCAT = target: T3, WT LCAT (Homo sapiens, UniProt P04180); experiment: MST binding assay; design: hydrolysis of 4-methylumbelliferyl palmitate (MUP) by full-length LCAT; made in house; host or cells: HEK293F (transient transfection, secreted)
T3 sequence (P04180 25-440): T2 sequence (P04180 25-440)
Protocol: MST was used to determine the binding affinity of the compounds to LCAT. Recombinant proteins were labeled with a fluorophore using the Monolith His-tag labeling RED-Tris-NTA 2nd Generation kit following manufacturer’s protocol. Compounds were titrated in a two-fold dilution series starting at 20 μM and incubated with the same volume of 100 nM labeled recombinant protein for 5 min at room temperature. Measurements were carried out in PBS containing 0.05% Tween-20 and standard capillaries using a Monolith NT.115 instrument (Nanotemper Technologies) with 50% LED excitation power, 60% MST power, MST on-time of 30 s and off-time of 5 s. Kd values were calculated by fitting the thermophoresis signal at 20 s of the thermograph using MO.AffinityAnalysis software.

Thermal stabilization (DSF) (LPLA2)	Effect on pNPB esterase activity of WT (LCAT [2])	Stimulation of pNPB esterase activity (LCAT [3])	Kd (WT LCAT; read-out: Kd, binding to LCAT via microscale thermophoresis) [nM]	SMILES	Thermal stabilization (DSF) [1]	Binding to WT LCAT by MST (WT LCAT)
not stabilized	seemed to inhibit	did not stimulate	100 ± 14	N#Cc1cnc(N2CCC(c3n[nH]c4c3C(O)(C(F)(F)F)CC(=O)N4)CC2)cc1C(F)(F)F (stereo not shown) [compound 1, 6-(4-(4-Hydroxy-6-oxo-4-(trifluoromethyl)−4,5,6,7-tetrahydro-1H-pyrazolo[3,4-b]pyridin-3-yl)piperidin-1-yl)−4-(trifluoromethyl)nicotinonitrile]	unable to be stabilized	does
–	–	–	–	O=C1CC(O)(C(F)(F)F)c2c(ncn2C2CCNCC2)N1 (stereo not shown) [compound 6, 7-Hydroxy-1-(piperidin-4-yl)−7-(trifluoromethyl)−6,7-dihydro-1H-imidazo[4,5-b]pyridin-5(4H)-one]	–	does not bind; also recorded: unable to bind
